Laboratory results from patent publication US20240002344A1, “COMPOUNDS, COMPOSITIONS AND METHODS FOR HISTONE LYSINE DEMETHYLASE INHIBITION” (FibroGen, Inc., priority 2020, published 2024).

Experiments:
[1] = molecular target: T1, recombinant human KDM5B (Homo sapiens, UniProt Q9UGL1); assay: 14CO2 capture enzymatic assay (decarboxylation of [1-14C] αKG), KDM5B; type: biochemical; settings: 10 μM [1-14C] αKG, 90 μM non-labeled αKG, 50 μM peptide substrate, 37° C., 1 hour, final 1% DMSO
T1 sequence (Q9UGL1 374-755 limits assumed): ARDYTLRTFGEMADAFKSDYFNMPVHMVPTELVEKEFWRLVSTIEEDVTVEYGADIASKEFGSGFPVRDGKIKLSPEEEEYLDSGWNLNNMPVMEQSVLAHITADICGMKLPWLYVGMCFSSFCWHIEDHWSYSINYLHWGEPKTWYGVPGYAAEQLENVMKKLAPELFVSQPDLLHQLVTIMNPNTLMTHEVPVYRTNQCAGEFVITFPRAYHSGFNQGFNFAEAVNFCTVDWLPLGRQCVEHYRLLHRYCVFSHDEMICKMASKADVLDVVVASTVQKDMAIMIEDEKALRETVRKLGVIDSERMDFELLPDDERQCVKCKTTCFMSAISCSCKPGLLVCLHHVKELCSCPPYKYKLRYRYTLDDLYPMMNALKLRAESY
Procedure: (§1) Enzymatic activity was determined based on the capture of ^14CO2 released by the decarboxylation of [1-^14C] αKG (Zhang et al., Anal. Biochem., 1998, vol. 271, pp. 137-142). [1-^14C]alphaketoglutarate (αKG) was from Perkin-Elmer, H3K4me3 and H3K9me3 peptides were from Mimotopes. All other reagents were from Sigma. Reaction mixtures included the following components: Fe(SO4), [1-^14C] αKG, non-labeled αKG, ascorbate, peptide-substrate (H3K4me3: H-ARTK(me3)QTARKSTGGKAPRKQLA-OH. H3K9me3: H-ARTKQTARK(me3)STGGKAPRKQLA-OH), NaCl, Tween-20 and catalase in 25 mM HEPES buffer, pH 7.4. The enzymatic reactions were initiated by addition of recombinant human KDM5B or KDM4A enzyme (truncated enzyme produced in house by method and using sequence disclosed in Ng et al, Nature 448:87-91, 2007). The reactions were performed in 96-well microtiter plates (20 μL total assay volume) (Greiner #650201). ^14CO2 was captured on a glass fiber filter paper (Cat. No. IH-201-A, Inotech Biosystems International) soaked with saturated Ba(OH)2 that was laid on top of the 96-well plate. A microtiter plate sealer film (Thermal Seal cat #T7961100) was applied to the filter paper. The plate and filter paper were sandwiched between two custom made aluminum plates (Advanced Component Manufacturing, Burlingame, CA) and transferred to a 37° C. oven and allowed to incubate for 1 hour. After incubation, the filter paper was dried in a 103° C. oven for 40-60 minutes. To determine percent turnover, aliquots of the reaction mixture were spotted onto the filter paper and the filter paper was dried again. The dry filter paper was exposed to a storage phosphor screen for 24-72 hours and the images recorded using a Typhoon FLA 7000 Imager (Amersham Biosciences, Piscataway, NJ). Integrated spot intensities corresponding to control reactions lacking the enzyme were subtracted from integration results for enzyme containing reactions and data were converted to enzyme dependent percent ^14CO2 release. All enzymatic reactions were run in duplicates.
(§2) For IC50 determination, a 3-fold dilution series of compound was prepared and added to the reaction mixture (final 1% DMSO, v/v) prior to enzyme addition. The final reagent concentrations were: 10 μM Fe(SO4), 10 μM [1-^14C] αKG, 90 μM non-labeled αKG, 2 mM ascorbate, 50 μM peptide substrate, 75 mM NaCl, 0.01% Tween-20 and ˜2 units/μL catalase. IC50s were determined by non-linear fitting using Grafit version 7.0.

[2] = molecular target: T2, recombinant human KDM4A (Homo sapiens, UniProt O75164); assay: 14CO2 capture enzymatic assay (decarboxylation of [1-14C] αKG), KDM4A; type: biochemical; settings: 10 μM [1-14C] αKG, 90 μM non-labeled αKG, 50 μM peptide substrate, 37° C., 1 hour, final 1% DMSO
T2 construct: made in house
T2 sequence (O75164 1-359 limits assumed): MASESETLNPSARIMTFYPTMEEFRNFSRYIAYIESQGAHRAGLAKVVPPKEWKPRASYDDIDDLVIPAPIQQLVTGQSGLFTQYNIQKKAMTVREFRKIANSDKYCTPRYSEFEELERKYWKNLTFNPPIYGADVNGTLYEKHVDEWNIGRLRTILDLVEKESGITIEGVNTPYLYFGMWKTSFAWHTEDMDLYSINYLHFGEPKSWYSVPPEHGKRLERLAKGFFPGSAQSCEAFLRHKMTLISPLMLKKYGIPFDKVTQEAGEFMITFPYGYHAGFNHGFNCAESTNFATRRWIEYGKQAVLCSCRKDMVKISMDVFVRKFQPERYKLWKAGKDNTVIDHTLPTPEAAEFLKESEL
Procedure: as §1, §2

Row | SMILES | IC50 [1] | IC50 [2]
1 | O=C(O)CCC(=O)c1nc(Br)cc(Br)c1O [Example 1, 4-(4,6-Dibromo-3-hydroxy-pyridin-2-yl)-4-oxo-butyric acid] | 450 nM | 36 µM
2 | N#Cc1cc(Br)c(O)c(C(=O)CCC(=O)O)n1 [Example 2, 4-(4-Bromo-6-cyano-3-hydroxy-pyridin-2-yl)-4-oxo-butyric acid] | 310 nM | 19 µM
3 | N#Cc1cc(C#N)c(O)c(C(=O)CCC(=O)O)n1 [Example 3, 4-(4,6-Dicyano-3-hydroxy-pyridin-2-yl)-4-oxo-butyric acid] | 110 nM | 16 µM
4 | O=C(O)CCC(=O)c1nc(C(F)(F)F)cc(C(F)(F)F)c1O [Example 4, 4-(3-Hydroxy-4,6-bis-trifluoromethyl-pyridin-2-yl)-4-oxo-butyric acid] | 230 nM | 3.5 µM
5 | CSc1cc(C#N)c(O)c(C(=O)CCC(=O)O)n1 [Example 5, 4-(4-Cyano-3-hydroxy-6-methylsulfanyl-pyridin-2-yl)-4-oxo-butyric acid] | 240 nM | 71 µM
6 | Cc1cc(C#N)c(O)c(C(=O)CCC(=O)O)n1 [Example 6, 4-(4-Cyano-3-hydroxy-6-methyl-pyridin-2-yl)-4-oxo-butyric acid] | 280 nM | > 40 µM
7 | N#Cc1cc(C(F)(F)F)c(O)c(C(=O)CCC(=O)O)n1 [Example 8, 4-(6-Cyano-3-hydroxy-4-trifluoromethyl-pyridin-2-yl)-4-oxo-butyric acid] | 270 nM | 13 µM
8 | N#Cc1cc(Cc2ccccc2)nc(C(=O)CCC(=O)O)c1O [Example 10, 4-(6-Benzyl-4-cyano-3-hydroxy-pyridin-2-yl)-4-oxo-butyric acid] | 160 nM | > 40 µM
9 | N#Cc1cc(CCc2ccccc2)nc(C(=O)CCC(=O)O)c1O [Example 15, 4-(4-Cyano-3-hydroxy-6-phenethyl-pyridin-2-yl)-4-oxo-butyric acid] | 390 nM | > 40 µM
10 | Cn1cc(-c2cc(C#N)c(O)c(C(=O)CCC(=O)O)n2)cn1 [Example 16, 4-[4-Cyano-3-hydroxy-6-(1-methyl-1H-pyrazol-4-yl)-pyridin-2-yl]-4-oxo-butyric acid] | 210 nM | > 40 µM
11 | N#Cc1cc(Cc2ccc(Cl)cc2)nc(C(=O)CCC(=O)O)c1O [Example 17, 4-[6-(4-Chloro-benzyl)-4-cyano-3-hydroxy-pyridin-2-yl]-4-oxo-butyric acid] | 190 nM | > 40 µM
12 | N#Cc1cc(Cc2ccccc2Cl)nc(C(=O)CCC(=O)O)c1O [Example 21, 4-[6-(2-Chloro-benzyl)-4-cyano-3-hydroxy-pyridin-2-yl]-4-oxo-butyric acid] | 210 nM | 29 µM
13 | N#Cc1cc(Cc2ccc3ccccc3c2)nc(C(=O)CCC(=O)O)c1O [Example 24, 4-(4-Cyano-3-hydroxy-6-naphthalen-2-ylmethyl-pyridin-2-yl)-4-oxo-butyric acid] | 520 nM | > 40 µM
14 | N#Cc1cc(C2CCCCC2)nc(C(=O)CCC(=O)O)c1O [Example 25, 4-(4-Cyano-6-cyclohexyl-3-hydroxy-pyridin-2-yl)-4-oxo-butyric acid] | 330 nM | > 40 µM
15 | COc1ccc(Cc2cc(C#N)c(O)c(C(=O)CCC(=O)O)n2)cc1 [Example 27, 4-[4-Cyano-3-hydroxy-6-(4-methoxy-benzyl)-pyridin-2-yl]-4-oxo-butyric acid] | 550 nM | > 40 µM
16 | N#Cc1cc(Cc2cccc(C(F)(F)F)c2)nc(C(=O)CCC(=O)O)c1O [Example 29, 4-[4-Cyano-3-hydroxy-6-(3-trifluoromethyl-benzyl)-pyridin-2-yl]-4-oxo-butyric acid] | 460 nM | > 40 µM
17 | N#Cc1cc(Cc2c(F)cccc2Cl)nc(C(=O)CCC(=O)O)c1O [Example 30, 4-[6-(2-Chloro-6-fluoro-benzyl)-4-cyano-3-hydroxy-pyridin-2-yl]-4-oxo-butyric acid] | 250 nM | 17 µM

Other lines, results leading:

Row | IC50 [1] | IC50 [2] | SMILES
18 | 210 nM | > 40 µM | N#Cc1cc(-c2ccccc2)nc(C(=O)CCC(=O)O)c1O [Example 7, 4-(4-Cyano-3-hydroxy-6-phenyl-pyridin-2-yl)-4-oxo-butyric acid]
19 | 160 nM | > 40 µM | COc1ccc(-c2cc(C#N)c(O)c(C(=O)CCC(=O)O)n2)cc1 [Example 9, 4-[4-Cyano-3-hydroxy-6-(4-methoxy-phenyl)-pyridin-2-yl]-4-oxo-butyric acid]
20 | 590 nM | > 40 µM | N#Cc1cc(-c2ccccn2)nc(C(=O)CCC(=O)O)c1O [Example 11, 4-(4-Cyano-5-hydroxy-[2,2′]bipyridinyl-6-yl)-4-oxo-butyric acid]
21 | 130 nM | 16 µM | N#Cc1cc(-c2ccncc2)nc(C(=O)CCC(=O)O)c1O [Example 12, 4-(4-Cyano-5-hydroxy-[2,4′]bipyridinyl-6-yl)-4-oxo-butyric acid]
22 | 140 nM | 22 µM | N#Cc1cc(-c2cccnc2)nc(C(=O)CCC(=O)O)c1O [Example 13, 4-(4-Cyano-5-hydroxy-[2,3′]bipyridinyl-6-yl)-4-oxo-butyric acid]
23 | 470 nM | > 40 µM | COc1ccccc1-c1cc(C#N)c(O)c(C(=O)CCC(=O)O)n1 [Example 14, 4-[4-Cyano-3-hydroxy-6-(2-methoxy-phenyl)-pyridin-2-yl]-4-oxo-butyric acid]
24 | 100 nM | > 40 µM | N#Cc1cc(Cc2cccc(Cl)c2)nc(C(=O)CCC(=O)O)c1O [Example 18, 4-[6-(3-Chloro-benzyl)-4-cyano-3-hydroxy-pyridin-2-yl]-4-oxo-butyric acid]
25 | 230 nM | > 40 µM | N#Cc1cc(-c2ccc(F)cc2)nc(C(=O)CCC(=O)O)c1O [Example 19, 4-[4-Cyano-6-(4-fluoro-phenyl)-3-hydroxy-pyridin-2-yl]-4-oxo-butyric acid]
26 | 170 nM | > 40 µM | N#Cc1cc(-c2cccc(F)c2)nc(C(=O)CCC(=O)O)c1O [Example 20, 4-[4-Cyano-6-(3-fluoro-phenyl)-3-hydroxy-pyridin-2-yl]-4-oxo-butyric acid]
27 | 180 nM | ≥ 40 µM | N#Cc1cc(-c2ccc(Cl)cc2)nc(C(=O)CCC(=O)O)c1O [Example 22, 4-[6-(4-Chloro-phenyl)-4-cyano-3-hydroxy-pyridin-2-yl]-4-oxo-butyric acid]
28 | 150 nM | ≥ 40 µM | N#Cc1cc(-c2cccc(Cl)c2)nc(C(=O)CCC(=O)O)c1O [Example 23, 4-[6-(3-Chloro-phenyl)-4-cyano-3-hydroxy-pyridin-2-yl]-4-oxo-butyric acid]
29 | 200 nM | > 40 µM | N#Cc1cc(-c2ccc(C(F)(F)F)cc2)nc(C(=O)CCC(=O)O)c1O [Example 26, 4-[4-Cyano-3-hydroxy-6-(4-trifluoromethyl-phenyl)-pyridin-2-yl]-4-oxo-butyric acid]
30 | 200 nM | > 40 µM | N#Cc1cc(-c2cccc(C(F)(F)F)c2)nc(C(=O)CCC(=O)O)c1O [Example 28, 4-[4-Cyano-3-hydroxy-6-(3-trifluoromethyl-phenyl)-pyridin-2-yl]-4-oxo-butyric acid]
